A short description of test [1]: HL60 CC50 (uM) Cytotoxicity. The class given is functional. Particulars: HL-60.
The test system of test [2] is Plasmodium berghei. The test can be described thus: Antimalarial activity: Liver Stage Plasmodium berghei sporozoite Luciferase assay: inhibition at 10 uM (%). The class given is functional.
The subject of test [3] is Plasmodium falciparum. As to the kind of experiment: Antimalarial activity: Gametocytes Plasmodium falciparum NF54 Gametocytes Stage V: inhibition at 10 uM (%). The class given is functional.
Test [4] deals with HepG2. The test can be described thus: Cytotoxicity data HepG2 CC20 (uM). The class given is functional.
For test [5], the system named is HepG2. As to the kind of experiment: HepG2 inhibition at 10 uM (%) Cytotoxicity. The class given is functional. Particulars: Homo sapiens.
The subject of test [6] is Plasmodium falciparum. As to the kind of experiment: Antimalarial activity: Asexual Blood Stage Plasmodium falciparum Dd2 IC50 (uM). The class given is functional, organism-based.
Test [7] deals with Plasmodium falciparum. The test can be described thus: Antimalarial activity: Asexual Blood Stage Plasmodium falciparum 3D7 IC50 (uM). The class given is functional, organism-based.
For test [8], the system named is Plasmodium falciparum. As to the kind of experiment: Antimalarial activity: Asexual Blood Stage Plasmodium falciparum W2 IC50 (uM). The class given is functional, organism-based.
Test [9] concerns Plasmodium berghei. As to the kind of experiment: Antimalarial activity: Liver Stage Plasmodium berghei sporozoite Luciferase assay IC50 (uM). The class given is functional, organism-based.
The subject of test [10] is HepG2. The test can be described thus: HepG2 CC50 (uM) Cytotoxicity. To be noted: Homo sapiens. The class given is functional.

By CC50 is commonly meant the concentration that lowers cell viability or growth by half. A low value points to greater toxicity to the cells. One may read the Inhibition as the drop in the measured response relative to a control, in per cent. A higher Inhibition goes with strong suppression. One may read the inhibition as how much of the control response was suppressed. Low readings indicate a weak effect, high ones a strong effect. The term IC50 denotes the concentration at which inhibition is half-maximal.

As for `O=C(Nc1ccnc(-c2cccnc2)n1)c1cc(C(F)(F)F)cc(C(F)(F)F)c1`, in [1], the CC50 was over 50 µM. Also, the Inhibition in test [2] is 0%; in test [3] it was 10%. Besides, the CC20 in test [4] is over 80 µM. The same molecule had an inhibition at 10 µM in test [5] of 13%. Moreover, the IC50 in test [6] is over 2000 nM; in test [7], 1050 nM.
In test [1], `O=C(Nc1cccc(-c2ccc(NCCCN3CCCC3)nc2)c1)c1ccccc1` registered a CC50 of over 50 µM. Moreover, the Inhibition stood at 25% in test [2] and 7% in test [3]. In addition, the IC50 was 1660 nM in test [8], 2740 nM in test [6] and 850 nM in test [7]. In [4], this molecule registered a CC20 of 17.2 µM. In test [5], at 10 µM the inhibition was 0%.
`OCc1ccc(-c2cncc(Nc3cccc(Cl)c3)c2)cc1`: in [1], the CC50 is over 25 µM. Also, the Inhibition in test [2] is 57%; in [3] it was 5%. The CC20 in [4] was found to be 20.5 µM. In addition, the inhibition at 10 µM in [5] turned out to be 7%. In addition, the half-inhibitory concentration (IC50) in test [6] was found to be 10 nM; in test [7] it was 30 nM.
As for `CN1CCN(c2nccc3[nH]c(-c4cccc(F)c4)cc23)CC1`, in test [1], the half-maximal cytotoxic concentration (CC50) is over 12.5 µM. In addition, the Inhibition in test [2] came to 40%; in [3], 29%. Besides, the 50% inhibitory concentration (IC50) in test [8] is 2630 nM; in test [6], 2100 nM; in [7], 1460 nM. Moreover, the CC20 in test [4] was 10.4 µM. This molecule had an inhibition at 10 µM in [5] of 2%.
Molecule `O=C(NCCc1ccccc1)c1cc(-c2cccnc2)cnc1NCC1CC1` displayed a CC50 in test [1] of over 12.5 µM. In addition, the figures for the Inhibition in test [2] and in [3] were 39% and 4%, respectively. For the same molecule, the concentration for half-maximal inhibition (IC50) in test [8] stood at 1400 nM; in [6], 2290 nM; in test [7] it was 1290 nM. The molecule further yielded a CC20 in test [4] of 12.9 µM. The inhibition at 10 µM in [5] is 5%.
Turning to `CCN(CC)CCCN1CCN(C(=O)c2cccc(-c3noc(C(F)(F)F)n3)c2)CC1`, the CC50 in test [1] is over 50 µM. Besides, the Inhibition came out at 4% in test [2] and 18% in [3]. Also, the concentration for half-maximal inhibition (IC50) in test [8] was determined as 310 nM; in test [6] it was 850 nM; in test [7], 190 nM. The molecule further displayed a CC20 in test [4] of over 80 µM. This molecule showed an inhibition at 10 µM in test [5] of 0%.
In test [1], `CC(C)(C)CN1C(=O)C(c2ccccc2)(c2ccccc2)N=C1N` yielded a half-maximal cytotoxic concentration (CC50) of 6.5 µM. For the same molecule, the Inhibition worked out at 25% in test [2] and 2% in [3]. Further, the IC50 in test [8] is over 2000 nM; in [6], 1500 nM; in test [7] it was 800 nM. Also, the CC20 in [4] came to 1.17 µM. Also, the inhibition at 10 µM in test [5] was found to be 0%.
Turning to `CCCNC(=O)N1CCC2(CC1)CC(=O)c1cc(C)ccc1O2`, the cytotoxic concentration (CC50) in [1] was over 50 µM. In addition, the Inhibition came out at 3% in test [2] and 1% in test [3]. Moreover, the IC50 was determined as 1570 nM in [8], 3120 nM in test [6] and 2060 nM in test [7]. The molecule further showed a CC20 in test [4] of over 80 µM. Moreover, the inhibition at 10 µM in test [5] was 0%.
Regarding `CC(C)(C)c1cc(C(=O)Nc2cccnc2)cc(C(=O)Nc2cccnc2)c1`, the cytotoxic concentration (CC50) in [1] is over 50 µM. The values for the Inhibition in test [2] and in test [3] were 12% and 10%, respectively. The results for the IC50 in [8], in [6] and in test [7] were 1880 nM, 1630 nM and 900 nM, respectively. In addition, the CC20 in [4] was determined as 17.2 µM. The molecule further came in with an inhibition at 10 µM in test [5] of 19%.
Consider `Cc1cccc(NC(=O)c2cc(S(=O)(=O)N(C)c3ccc(F)cc3)ccc2Cl)n1`, for which the half-inhibitory concentration (IC50) in test [9] was 6.77 µM; in test [8], 1070 nM; in [6] it was over 2000 nM; in test [7], 1580 nM. Further, the Inhibition was determined as 86% in [2] and 3% in test [3]. Moreover, the CC50 in test [10] was over 10 µM. Moreover, the CC20 in test [4] was 26.4 µM.
As to `COc1cncc(-c2cncc(N3CCN(c4ccncc4)CC3)n2)c1`, the IC50 is over 7.5 µM in test [9], 180 nM in [8], 150 nM in [6] and 100 nM in test [7]. The results for the Inhibition in test [2] and in test [3] were 64% and 12%, respectively. In test [10], the CC50 was over 10 µM. In [4], this molecule returned a CC20 of 4.65 µM.

Source of the values: ChEMBL document CHEMBL3832761, “MMV Pathogen Box Bioactivity Data” (2017).
